Measurements: patent EP0409528A2, “Platinum triamine antitumor agents containing substituted anilines” (ENGELHARD CORPORATION, priority 1989, dated 1991)
Where “and” joins values, the source holds several entries; their conditions need not be identical. Equal entries are not always repeated.

How the values were obtained:
Sarcoma 180a = assay: Sarcoma 180 ascites (S180a) antitumor screening; type: in vivo, female CFW mice; settings: for %ILS: single ip on day 1, in water; for %ILS / activity against Sarcoma 180a: ILS > 50% indicates activity; for Surv: survivors per group of 6 mice; for maximum ILS: Sarcoma 180a, at 20 mg/kg; for maximum ILS / activity against Sarcoma 180a: single ip administration on Day 1; for activity against Sarcoma 180a: result in words
Experimental: (§1) All of the compounds of the Examples were tested against Sarcoma 180a in female CFW mice via single ip administration on Day 1. Two of the compounds were active in this system: cis -[Pt(NH3)2(4-iodoaniline)CI]N03 (maximum ILS = 81% at 20 mg/kg) and cis -[Pt(NH3)2(3-iodoaniline)Cl]NO3 (maximum ILS = 83% at 20 mg/kg). The remaining compounds were not active. cis -[Pt(NH3)2(4-iodoaniline)Cl]NO3 was also tested against L1210 leukemia in female CDF1 mice via single ip administration on Day 1.
Female CFW mice (18-25g) were implanted with 2 x 10^6 cells ip on day zero. Compounds were administered in 0.5 mL of water ip on day one. Groups of 6 mice were used for each test dose as well as controls as defined above. The test was run for twice the MST of the control group, with survivors counted as dying on that day. An ILS of > 50% indicates activity. The tumor line was maintained through weekly transfer of 4 x 10^6 cells in CFW mice.

L1210 leukemia = assay: L1210 antitumor screening; type: in vivo, female CDF1 mice
Experimental: as §1
L1210 screening was conducted according to a published method. See Rose, et al, Cancer Treat. Repts ., 1982 , 66 , 135, which is incorporated herein by reference. Female CDF, mice (16-22g) were implanted with 1 x 10^6 tumor cells ip on day zero. Compounds were administered in 0.5 mL of water ip on day one. Groups of 6 mice were used for each dose. A control group of mice received only tumor and 0.5 mL of water. A positive control group received tumor and 8 mg/kg cisplatin in 0.5 mL of 0.15 M NaCI. The test was terminated after three times the mean survival time (MST) of the control group. Surviving mice were counted as dying on that day. Activity was determined based on the percent increase in MST of test mice over controls (%ILS). An ILS of > 25% represents activity. The tumor line was maintained through weekly transfer of 5 x 10^4 cells in DBA/2 mice.

[1] = S180a, dose 1.25 mg/kg ip day 1

| SMILES | %ILS (Sarcoma 180a; S180a, dose 1.25 mg/kg) | %ILS (Sarcoma 180a; S180a, dose 2.5 mg/kg) | %ILS (Sarcoma 180a; S180a, dose 5 mg/kg) | %ILS (Sarcoma 180a; S180a, dose 10 mg/kg) | %ILS (Sarcoma 180a; S180a, dose 20 mg/kg) | %ILS (Sarcoma 180a; S180a, dose 40 mg/kg) | Surv (Sarcoma 180a; [1]) | Surv (Sarcoma 180a; S180a, dose 2.5 mg/kg ip day 1) | Surv (Sarcoma 180a; S180a, dose 5 mg/kg ip day 1) | Surv (Sarcoma 180a; S180a, dose 10 mg/kg ip day 1) | Surv (Sarcoma 180a; S180a, dose 20 mg/kg ip day 1) | Surv (Sarcoma 180a; S180a, dose 40 mg/kg ip day 1) | maximum ILS (Sarcoma 180a) | activity against Sarcoma 180a (Sarcoma 180a) | other results |
| --- | --- | --- | --- | --- | --- | --- | --- | --- | --- | --- | --- | --- | --- | --- | --- |
| [NH2][Pt]([NH2])([Cl])[Cl] [Positive Control, cisplatin, reference compound] | – | – | – | – | – | – | – | – | – | – | – | – | – | – | Positive Control SURV (Sarcoma 180a; S180a, positive control group: 8 mg/kg cisplatin in 0.15 M NaCl ip day 1, survivors per 6 mice): 4/6 and 5/6 and 6/6; Positive Control %ILS (Sarcoma 180a; S180a, positive control group: 8 mg/kg cisplatin in 0.5 mL of 0.15 M NaCl ip day 1): 92% and 95% and 98%; Positive Control SURV (L1210 leukemia; L1210, positive control group: 8 mg/kg cisplatin in 0.15 M NaCl ip day 1, survivors per 6 mice): 5/6; Positive Control %ILS (L1210 leukemia; L1210, positive control group: 8 mg/kg cisplatin in 0.5 mL of 0.15 M NaCl ip day 1): 190% |
| N.N.Nc1cccc(I)c1.O=[N+]([O-])[O-].[Cl-].[Pt+2] [cis-[Pt(NH3)2(3-iodoaniline)Cl]NO3] | -3% | 9% | 23% | 51% | 83% | 66% | 0/6 | 0/6 | 0/6 | 1/6 | 2/6 | 4/6 | 83% | active | – |
| N.N.Nc1ccc(Br)cc1.O=[N+]([O-])[O-].[Cl][Pt+] [cis-[Pt(NH3)2(4-bromoaniline)Cl]NO3] | 2% | 7% | 38% | 44% | -14% | -74% | 0/6 | 0/6 | 0/6 | 1/6 | 2/6 | 0/6 | – | – | – |
| N.N.Nc1ccc(Cl)cc1.O=[N+]([O-])[O-].[Cl][Pt+] [cis-[Pt(NH3)2(4-chloroaniline)Cl]NO3] | 3% | 9% | 40% | 44% | -51% | -77% | 0/6 | 0/6 | 0/6 | 0/6 | 0/6 | 0/6 | – | – | – |
| N.N.Nc1ccc(F)cc1.O=[N+]([O-])[O-].[Cl-].[Pt+2] [cis-[Pt(NH3)2(4-fluoroaniline)Cl]NO3, cis-[Pt(NH3)2(4-fluoraniline)Cl]NO3] | 6% | 14% | 27% | 45% | -48% | -77% | 0/6 | 0/6 | 0/6 | 0/6 | 1/6 | 0/6 | – | – | – |
| N.N.Nc1ccc(I)cc1.O=[N+]([O-])[O-].[Cl-].[Pt+2] [cis-[Pt(NH3)2(4-iodoaniline)Cl]NO3, cis-(Pt(NH3)2(4-iodoaniline)Cl]NO3] | -1% | 22% | 38% | 39% | 81% | – | 0/6 | 0/6 | 0/6 | 0/6 | 2/6 | – | 81% | active | %ILS (Sarcoma 180a; S180a, dose 0.63 mg/kg): 12%; Surv (Sarcoma 180a; S180a, dose 0.63 mg/kg ip day 1): 0/6; %ILS (L1210 leukemia; L1210, dose 1.25 mg/kg, single ip on day 1, ILS > 25% represents activity): 14%; Surv (L1210 leukemia; L1210, survivors per group of 6 mice, dose 1.25 mg/kg ip day 1): 0/6; maximum ILS (L1210 leukemia; L1210 leukemia, at 10 mg/kg, single ip administration on Day 1): 37%; activity against L1210 leukemia (L1210 leukemia; result in words, single ip administration on Day 1, ILS > 25% represents activity): moderate level of activity |
